The values that follow come from patent US20060154880A1, “Methods and compositions using immunomodulatory compounds for treatment and management of parasitic diseases” (priority 2004, published 2006).

The conditions of series [1]: cited from earlier work; for hygroscopicity: polymorphic form, solid state; for stability / interconversion of polymorphic form: solvent system as stated.
The subject of a further series is IFN-γ production. Kind of series: Augmentation of IFN-γ production following TCR activation of T-cells. Format: cell-based.
A further series has as its system TNF-α production. Kind of series: Inhibition of TNF-α production following LPS-stimulation of human PBMC. Type of series: cell-based.
Another series concerns IL-2 production. Kind of series: Augmentation of IL-2 production following TCR activation of PBMC. Type of series: cell-based.
A further series has as its system IL-1β production. The series can be described thus: LPS-stimulated production of IL-1β by PBMC. Format: cell-based.
A further series deals with T-cells. Kind of series: Stimulation of T-cell proliferation following primary induction by TCR activation. Format: cell-based.
The next series concerns IL-10 production. Kind of series: LPS-stimulated production of IL-10 by PBMC. Format: cell-based.
For the next series, the system named is IL-6 production. The series can be described thus: LPS-stimulated production of IL-6 by PBMC. Type of series: cell-based.

As for `Nc1cccc2c1CN(C1CCC(=O)NC1=O)C2=O` (stereo not shown) [Form A, 3-(4-amino-1-oxo-1,3 dihydro-isoindol-2-yl)-piperidene-2,6-dione], in series [1], the hygroscopicity entry is reported as “weakly or not hygroscopic” and the “stability / interconversion of polymorphic form” value (“stability / interconversion” below) is “most thermodynamically stable anhydrous polymorph”.

Turning to `Nc1cccc2c1CN(C1CCC(=O)NC1=O)C2=O` (stereo not shown) [Form E, 3-(4-amino-1-oxo-1,3 dihydro-isoindol-2-yl)-piperidene-2,6-dione], the “stability / interconversion” value in series [1] is “most stable form”.

Consider `Nc1cccc2c1CN(C1CCC(=O)NC1=O)C2=O` (stereo not shown) [Form B, 3-(4-amino-1-oxo-1,3 dihydro-isoindol-2-yl)-piperidene-2,6-dione], for which, in series [1], the “stability / interconversion” value is “converts to Form E in aqueous solvent systems”.

Take `Nc1cccc2c1CN(C1CCC(=O)NC1=O)C2=O` (stereo not shown): the “potency relative to thalidomide in augmenting the production of IFN-γ” value with IFN-γ production is recorded as 50-100 times. In the series on TNF-α production, the “effect on LPS-stimulated production of TNF-α by PBMC” value is given as “dose-dependent inhibition”. In addition, the “potency relative to thalidomide in augmenting the production of IL-2” value in the series on IL-2 production is given as 50-100 times. Besides, in the series with IL-1β production, the “effect on LPS-stimulated production of IL-1β by PBMC” value is listed as “dose-dependent inhibition”. In the series on T-cells, the “potency relative to thalidomide in stimulating the proliferation of T-cells” value is 50-100 times. Further, the “effect on production of the anti-inflammatory cytokine IL-10” value in the series with IL-10 production was “increased production”. Besides, in the series on IL-6 production, the “effect on LPS-stimulated production of IL-6 by PBMC” value is reported as “dose-dependent inhibition”.

Take `Nc1cccc2c1CN(C1CCC(=O)NC1=O)C2=O` (stereo not shown) [Form C, 3-(4-amino-1-oxo-1,3 dihydro-isoindol-2-yl)-piperidene-2,6-dione]: the hygroscopicity result in series [1] is recorded as “not hygroscopic below about 85% RH”.

Turning to `Nc1cccc2c1CN(C1CCC(=O)NC1=O)C2=O` (stereo not shown) [Form D, 3-(4-amino-1-oxo-1,3 dihydro-isoindol-2-yl)-piperidene-2,6-dione], the hygroscopicity result in series [1] is “either weakly or not hygroscopic”.
